# Reference: ChEMBL document CHEMBL1201862, “PubChem BioAssay data set” (2004)
# Where a name gives a salt, the structure may show the parent alone.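 96-well plates; 48 h exposure; 5 concentrations. Endpoints by linear interpolation between flanking doses. Not reached: highest tested concentration assigned. GI50: concentration for 50% inhibition of growth.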 The source made the active and inactive calls. Rule as the data show it: active = GI50 up to about 1.1 µM and inactive = higher.
# Assays:
# Experiment in all cases: NCI anticancer screen, dose series, 48 h
# Hs-578T = tested on: Hs-578T
# M19-MEL = tested on: M19-MEL
# XF498 = tested on: XF498
# HOP-18 = tested on: HOP-18
# DMS-273 = tested on: DMS-273
# LXFL 529 = tested on: LXFL 529
# DMS-114 = tested on: DMS-114
# SNB-78 = tested on: SNB-78
# RXF 631 = tested on: RXF 631
Compound,GI50 (Hs-578T),GI50 (M19-MEL),GI50 (HOP-18),GI50 (DMS-273),GI50 (LXFL 529),GI50 (SNB-78),other results
CCOC(=O)C(CCN1CCC2(CC1)C(=O)N(C)CN2c1ccccc1)C(=O)OCC,> 100 µM (inactive),,,,,,
O=C(O)CCCNS(=O)(=O)c1ccccc1,,> 100 µM (inactive),> 100 µM (inactive),> 100 µM (inactive),> 100 µM (inactive),,GI50 (XF498): 69.3 µM (inactive)
COC(=O)c1cc(C#Cc2cc(OC)ccc2OC)ccc1OC,> 100 µM (inactive),,,,,,
CCOC(=O)C[C@@H](C)[C@]1(C(=O)OC)CCCC1=O,,> 100 µM (inactive),> 100 µM (inactive),> 70.6 µM (inactive),> 100 µM (inactive),> 100 µM (inactive),GI50 (XF498): > 100 µM (inactive); GI50 (DMS-114): > 44.4 µM (inactive)
CN1CCC(CN2c3ccccc3Sc3ccccc32)C1 (stereo unspecified) [METHDILAZINE HYDROCHLORIDE],15.4 µM (inactive),,,,,,
c1ccc(SC(CCCCOC2CCCCO2)Sc2ccccc2)cc1 (stereo unspecified),,46.6 µM (inactive),,> 100 µM (inactive),41.1 µM (inactive),97.1 µM (inactive),GI50 (XF498): > 100 µM (inactive); GI50 (DMS-114): 34.1 µM (inactive)
COC1OC2COC(c3ccccc3)OC2C(O)C1Br (stereo unspecified),,> 100 µM (inactive),> 100 µM (inactive),> 100 µM (inactive),> 100 µM (inactive),> 100 µM (inactive),GI50 (XF498): > 100 µM (inactive)
CC(C)C(=S)N(C)O,,11.4 µM (inactive),,,2.39 µM (inactive),61.2 µM (inactive),GI50 (DMS-114): 2.43 µM (inactive); GI50 (RXF 631): 11.7 µM (inactive)
O=C1c2ccccc2C(=O)N1C/C=C/CO,,> 100 µM (inactive),> 100 µM (inactive),> 100 µM (inactive),> 100 µM (inactive),> 100 µM (inactive),GI50 (DMS-114): > 100 µM (inactive)
CC(=O)Nc1ccc(C(=O)N2N=C(C)/C(=C/c3cccc([N+](=O)[O-])c3)C2=O)cc1,,> 100 µM (inactive),> 100 µM (inactive),> 100 µM (inactive),,> 100 µM (inactive),GI50 (DMS-114): > 100 µM (inactive)
COc1ccc(/C=N/N2C(=O)c3c(N)c(C#N)c(-c4ccccc4)c(-c4ccccc4)c3C2=O)cc1,> 100 µM (inactive),,,,,,
CCc1nc(N)nc(N)c1-c1ccc(NC)c([N+](=O)[O-])c1,23.6 µM (inactive),,,,,,
O=C(O)c1nn(-c2ccc(Cl)cc2)c2c1C(=O)c1ccccc1C2=O,> 100 µM (inactive),,,,,,
COC(=S)OC1CC(n2cnc3c(=O)[nH]cnc32)OC1CO[Si](C)(C)C(C)(C)C (stereo unspecified),> 100 µM (inactive),,,,,,
O=C1C(CN2CCCC2)CCC1CN1CCCC1 (stereo unspecified),22.3 µM (inactive),,,,,,
Cc1ccc2nc(/C=N/c3ccccc3Cl)cc(C)c2c1,25.5 µM (inactive),,,,,,
CC(=O)OC1COC(Nc2ccc(C(C)=O)cc2)C(OC(C)=O)C1OC(C)=O (stereo unspecified),,> 100 µM (inactive),> 100 µM (inactive),> 100 µM (inactive),> 100 µM (inactive),> 100 µM (inactive),GI50 (DMS-114): > 100 µM (inactive); GI50 (RXF 631): > 100 µM (inactive)
CC(=O)OCC1OC(OCCCOP(=O)(OCCC#N)OCC2OC(n3cnc4c(N)ncnc43)C(OC(=O)c3ccccc3)C2OC(=O)c2ccccc2)C(OC(C)=O)C(OC(C)=O)C1OC(C)=O (stereo unspecified),28.7 µM (inactive),,,,,,
O=C(O)CSSCC(=O)O,> 100 µM (inactive),,,,,,
C=C(C=O)CCCC(C)[C@@H]1CCC23CC12CCC1[C@@]2(C)CCC(OC(C)=O)C(C)(C)C2CC(OC2OC(COC(C)=O)C(O)C(O)C2O)[C@]13C (stereo partly specified),,,9.64 µM (inactive),5.82 µM (inactive),2.66 µM (inactive),1.14 µM (inactive),
C[C@H](NC1=CC(=O)C(N[C@@H](C)[C@H](O)c2ccccc2)=CC1=O)[C@H](O)c1ccccc1,37.2 µM (inactive),,,,,,
CS(=O)(=O)N1CC(CCl)c2ccc([N+](=O)[O-])cc21 (stereo unspecified),70.1 µM (inactive),,,,,,
COc1cc(/C=C2\[C@H]3c4c(c(OC)c(C)c(OC)c4OC)CC(C(=O)N2Cc2ccccc2)N3C)c(OC)c(C)c1OC,,17.4 µM (inactive),23.7 µM (inactive),15.5 µM (inactive),19.4 µM (inactive),,
COc1cc(OC)c2c(O)c(S(=O)(=O)c3ccc(C)cc3)c(=O)oc2c1,94.6 µM (inactive),,,,,,
COC1CC2C3/C(=N/Nc4ccc([N+](=O)[O-])cc4[N+](=O)[O-])CCC2(C)C3C1 (stereo unspecified),,> 10 µM (inactive),> 10 µM (inactive),> 10 µM (inactive),> 10 µM (inactive),,GI50 (XF498): > 100 µM (inactive); GI50 (DMS-114): > 100 µM (inactive)
CN(C)CCC(=O)[C@@]1(O)CC[C@H]2[C@@H]3CC=C4C[C@@H](O)CC[C@]4(C)[C@H]3CC[C@@]21C,20.7 µM (inactive),,,,,,
